For series [1] the following is noted: rat, in vivo, po.
Experimental: (§1) The dispersions prepared according to Example 1 and Example 2 were tested in in vivo rat study together with dispersions comprising crystalline particles (prepared by wet milling) of compound A and B, respectively. The dispersions were orally administered at 100 mmol/kg.
(§2) The open circles illustrate the results obtained upon administration of the dispersions comprising crystalline particles.
A short description of series [2]: in vivo rat study: plasma concentration after oral administration of amorphous versus wet-milled crystalline dispersions. The conditions noted are these: 100 mmol/kg, maximum plasma concentration ratio of amorphous dispersion (Example 1 or 2) to wet-milled crystalline dispersion.
Experimental: as §1, §2

For `O=C(NC1CCCCC1O)c1nn(-c2ccc(Cl)cc2Cl)c(-c2ccc(OS(=O)(=O)CCC(F)(F)F)cc2)c1CO` (centres unmarked) [Compound A, 1-propanesulfonic acid, 3,3,3-trifluoro-, 4-[1-(2,4-dichlorophenyl)-3-[[(2-hydroxycyclohexyl)amino]carbonyl]-4-(hydroxymethyl)-1H-pyrazol-5-yl]phenyl ester], the AUCamorph/AUCcrystal in series [1] stood at 4.8. For `O=C(NC1CCCCC1)c1nn(-c2ccc(Cl)cc2Cl)c(-c2ccc(OS(=O)(=O)CCC(F)(F)F)cc2)c1CO` [Compound B, 1-propanesulfonic acid, 3,3,3-trifluoro-, 4-[3-[(cyclohexylamino)carbonyl]-1-(2,4-dichlorophenyl)-4-(hydroxymethyl)-1H-pyrazol-5-yl]phenyl ester], in series [2], the “c^maxamorph/c^maxcrystal” value worked out at 10.

For the origin of these results see patent publication US20080214611A1, “Pharmaceutical Compositions - 659” (AstraZeneca AB, priority 2007, published 2008).
